Assays:
[1] = target: Human recombinant KAT II protein (Homo sapiens, UniProt Q8N5Z0); experiment: KAT II activity, human recombinant protein ([3H]-kynurenine to [3H]-KYNA); format: biochemical
Description: (§1) For the measurement of KAT II activity, 100 μl of partially purified rat liver enzyme were incubated (2 hrs, 37° C.) with 100 μl of 150 mM Tris-acetate (pH 7.0), 2 μM (2.5 nCi) [^3H]-kynurenine, 1 mM pyruvate and 80 μM pyridoxal-5′-phosphate. Blanks were obtained using denatured protein preparations. The reaction was terminated by the addition of […] of 30% (w/v) trichloroacetic acid. 1 ml of 0.1 M HCl was added, and the denatured protein was removed by centrifugation. 1 ml of the supernatant was applied to a Dowex 50 W H^+cation exchange column, which was then washed with 1 ml of 0.1 M HCl, followed by 1 ml of ultrapure water. [^3H]-KYNA was subsequently eluted with 2×1 ml of ultrapure water, and radioactivity was quantified by liquid scintillation spectrometry. Human recombinant KAT II protein was also used to measure KAT II activity as described above.
(§2) Test compounds were added in 20 μl aliquots at the beginning of the incubation period to examine interference with enzyme activity.

[2] = target: T1, KAT II (partially purified rat liver enzyme) (Rattus norvegicus, UniProt Q64602); experiment: KAT II activity, partially purified rat liver enzyme ([3H]-kynurenine to [3H]-KYNA); format: biochemical
T1 construct: partially purified rat liver enzyme; from tissue; host or cells: rat liver
Description: as §1, §2

[3] = target: T2, Kynurenine 3-hydroxylase (Rattus norvegicus, UniProt O88867); experiment: Kynurenine 3-hydroxylase activity in rat liver homogenate; format: biochemical
T2 construct: determined in rat liver homogenate; from tissue; host or cells: rat liver homogenate
Description: (§3) Kynurenine 3-hydroxylase and kynureninase activities were determined in rat liver homogenate according to established procedures (see Anal. Biochem., 205:257-62, 1992 and Neuroscience., 61:237-43, 1994 for methodology).

[4] = target: T3, Kynureninase (Rattus norvegicus, UniProt P70712); experiment: Kynureninase activity in rat liver homogenate; format: biochemical
T3 construct: determined in rat liver homogenate; from tissue; host or cells: rat liver homogenate
T3 sequence (P70712 1-464): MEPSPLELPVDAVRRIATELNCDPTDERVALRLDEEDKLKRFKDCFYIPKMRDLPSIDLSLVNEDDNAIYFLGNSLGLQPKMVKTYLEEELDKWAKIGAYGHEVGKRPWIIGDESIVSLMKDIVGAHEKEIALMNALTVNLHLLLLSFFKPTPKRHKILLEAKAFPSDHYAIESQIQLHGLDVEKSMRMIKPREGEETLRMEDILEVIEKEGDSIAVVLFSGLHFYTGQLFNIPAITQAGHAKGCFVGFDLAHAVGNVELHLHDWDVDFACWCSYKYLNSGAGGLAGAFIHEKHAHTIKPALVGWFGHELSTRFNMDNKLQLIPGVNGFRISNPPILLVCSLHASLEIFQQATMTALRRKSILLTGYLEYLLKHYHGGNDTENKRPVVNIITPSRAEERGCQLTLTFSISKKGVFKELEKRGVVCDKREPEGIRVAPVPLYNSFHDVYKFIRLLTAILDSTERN
Description: as §3

[5] = system: KYNA production in rat brain tissue slices; experiment: De novo production of KYNA in rat brain tissue slices; format: cell-based; conditions: 6 hr at 37 degrees, FIG. 1
Description: The ability of Compound (A) to inhibit the de novo production of KYNA in rat brain tissue slices was also tested. A 2 μM concentration of Compound (A) was assayed as described by Gramsbergen J B, Hodgkins P S, Rassoulpour A, Turski W A, Guidetti P, Schwarcz R., (J. Neurochem., 69:290, 1997). Briefly, an aliquot of the original tissue homogenate was further diluted (1:5, v/v) in a buffer containing 5 mM Tris acetate (pH 8.0), 50 μM pyridoxal-5′-phosphate and 10 mM 2-mercapto-ethanol, and dialyzed overnight at 4 degrees. The reaction mixture containing 150 mM Tris-acetate buffer (pH 7.0), 2 μM L-kynurenine, 1 mM pyruvate, 80 μM pyridoxal-5′-phosphate and 80 μL dialysate in a total volume of […] was incubated w/wo Compound (A) for 6 hr at 37 degrees. The reaction was terminated by adding […] of 50% (w/v) trichloracetic acid and KYNA levels were measured using reverse-phase HPLC with fluorescence detection (excitation, 344 nm; emission, 398 nm).

[6] = system: extracellular kynurenic acid (KYNA) and dopamine (DA) levels in prefrontal cortex; experiment: In vivo reverse dialysis / microdialysis in rat prefrontal cortex; conditions: 1 mM into prefrontal cortex for 2 hours by reverse dialysis, FIG. 2
Description: Microdialysis was performed in the prefrontal cortex of unanesthetized male rats (200-220 g) according to established procedures (see Eur. J. Neurosci., 4:1264-70, 1992 for methodology).
Compound (A) was also tested in the rat brain in vivo. Briefly, a concentration of 1 mM Compound (A) was introduced into the prefrontal cortex for 2 hours by reverse dialysis. A detailed description of this method can be found in J Neurosci Res 85(4):845-54, 2007 (Ceresoli-Borroni G, Guidetti P, Amori L, Pellicciari R, Schwarcz R).

Chain of Human recombinant KAT II protein (Q8N5Z0 30-425): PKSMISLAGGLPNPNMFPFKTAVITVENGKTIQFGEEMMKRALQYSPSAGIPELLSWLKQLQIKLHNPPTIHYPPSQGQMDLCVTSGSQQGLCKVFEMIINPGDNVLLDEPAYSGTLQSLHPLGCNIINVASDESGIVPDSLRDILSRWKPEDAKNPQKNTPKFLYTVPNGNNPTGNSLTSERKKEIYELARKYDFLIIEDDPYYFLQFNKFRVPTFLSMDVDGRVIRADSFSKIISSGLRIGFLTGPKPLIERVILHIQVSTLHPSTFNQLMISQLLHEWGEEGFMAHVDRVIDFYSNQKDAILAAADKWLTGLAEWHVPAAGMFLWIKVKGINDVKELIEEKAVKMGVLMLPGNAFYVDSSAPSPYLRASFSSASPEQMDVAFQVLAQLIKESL
T2 sequence (O88867 whole entry): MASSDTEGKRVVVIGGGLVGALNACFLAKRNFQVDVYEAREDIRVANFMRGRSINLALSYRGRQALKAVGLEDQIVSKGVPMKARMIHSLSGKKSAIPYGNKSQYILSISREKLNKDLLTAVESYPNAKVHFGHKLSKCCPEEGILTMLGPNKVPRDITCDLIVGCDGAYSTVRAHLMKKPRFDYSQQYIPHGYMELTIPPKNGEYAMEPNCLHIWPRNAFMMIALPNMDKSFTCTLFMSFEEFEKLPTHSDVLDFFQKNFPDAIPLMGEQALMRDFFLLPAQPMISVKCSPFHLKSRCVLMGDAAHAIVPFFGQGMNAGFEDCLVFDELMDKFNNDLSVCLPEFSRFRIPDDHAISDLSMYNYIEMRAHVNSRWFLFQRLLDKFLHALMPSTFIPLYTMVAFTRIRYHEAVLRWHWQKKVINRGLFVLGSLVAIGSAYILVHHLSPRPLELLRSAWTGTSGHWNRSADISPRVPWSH
T1 sequence (Q64602 30-425): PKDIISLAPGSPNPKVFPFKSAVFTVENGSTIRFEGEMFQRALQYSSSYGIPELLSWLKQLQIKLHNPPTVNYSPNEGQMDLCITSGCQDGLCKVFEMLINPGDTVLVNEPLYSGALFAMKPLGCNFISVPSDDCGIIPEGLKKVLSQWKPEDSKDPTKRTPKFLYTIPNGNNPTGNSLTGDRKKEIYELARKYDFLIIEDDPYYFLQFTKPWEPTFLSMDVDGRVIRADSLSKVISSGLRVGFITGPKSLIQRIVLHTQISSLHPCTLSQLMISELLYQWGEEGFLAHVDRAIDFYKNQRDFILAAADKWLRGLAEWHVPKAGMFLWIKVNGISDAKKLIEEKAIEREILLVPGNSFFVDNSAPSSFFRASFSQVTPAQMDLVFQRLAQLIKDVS

C[C@H]1COc2c(N3CCN(N)CC3)c(F)cc3c(=O)c(C(=O)O)cn1c23.O=C(O)C(F)(F)F [Compound (A), (S)-(−)-9-(4-Aminopiperazin-1-yl)-8-fluoro-3-methyl-6-oxo-2,3-dihydro-6H-1-oxa-3a-aza-phenalene-5-carboxylic acid trifluoroacetate]
IC50 ([1]; human recombinant protein): 0.2 µM
times more active against human KAT II than against rat KAT II ([1]; human vs rat KAT II): 10 times
times more active than UPF 874 as a KAT II inhibitor in humans ([1]; relative to UPF 874): 3000 times
IC50 [2]: 2 µM
IC50 [3]: > 1000 µM
IC50 [4]: > 2000 µM
inhibition of de novo production of KYNA from L-kynurenine [5]: dose-dependently inhibit
increase of extracellular dopamine (DA) levels [6]: > 2.5 fold
reduction of extracellular kynurenic acid (KYNA) levels [6]: ~40%
